The values that follow come from PubChem BioAssay AID1996.

Each structure is given as a SMILES string. Values after ≈ are worked out from the molar mass of the structure shown. A value given as a limit tells only on which side of the number the result lay.

The conditions of this data set: buffer; pH 7.4; 200.0 µM.
By kinetic solubility is commonly meant solubility judged after dilution from a stock solution rather than from solid. Regarding `Cc1ccc(NC(=O)CCc2ccc(C)o2)c(Br)c1`, the solubility (kinetic) was 4.2 µg/mL (≈ 13 µM).
The result for `Cc1cccc(C(=O)NCC(C)NC(=O)c2cccc(C)c2)c1` (stereo not given) reads 23.7 µg/mL (≈ 76.4 µM); that for `COc1ccccc1/C=C/C(=O)N1CCc2cc(OC)c(OC)cc2C1C` (stereo not given), 33 µg/mL (≈ 89.8 µM); that for `O=C(Cn1cnc([N+](=O)[O-])n1)NC1CC1`, above 31.7 µg/mL.
The compound `Cc1ccc(NC(=O)C2CCCN2C(=O)Oc2ccccc2)c(C)c1` (stereo not given) registered a kinetic solubility above 50.8 µg/mL.
The result for `Cc1ccc(C(=O)Nc2ccc(C(F)(F)F)n(C)c2=O)cc1` reads 2.1 µg/mL (≈ 6.77 µM).
The compound `COc1ccccc1CN(C)CC(=O)Nc1cccc(S(=O)(=O)N2CCCC2)c1.O=C(O)C(=O)O` showed a kinetic solubility of 57.3 µg/mL.
The same measure for `CCN=C(NCC)SC1CC(=O)N(CCc2ccccc2)C1=O` (stereo not given): 36.3 µg/mL (≈ 109 µM).
`Cc1cccc(CN2CCN(c3ncccn3)CC2)c1` showed a kinetic solubility of 30.6 µg/mL (≈ 114 µM). The solubility kinetic values of the last two compounds are within 1.5-fold of each other.
The result for `Cn1c(=O)c2cnc(-c3ccc(C(F)(F)F)cc3)nc2n(C)c1=O` reads below 0.2 µg/mL; that for `COc1ccc(NCc2nc3ccccc3n2C)cc1`, 35 µg/mL (≈ 131 µM).
The result for `CC(Oc1ccc(Cl)cc1)C(=O)Nc1ccccc1N1CCOCC1` (stereo not given) reads 10.1 µg/mL (≈ 28 µM); that for `Clc1cccc(Nc2nc(-c3ccncc3)nc3ccccc23)c1`, below 0.2 µg/mL; that for `COc1ccc(CC(=O)NCc2ccc(F)cc2)cc1S(=O)(=O)N1CCOCC1`, above 63.4 µg/mL.
With `CSc1ccccc1C(=O)Nc1cccc([N+](=O)[O-])c1C`, the solubility (kinetic) amounted to 7.5 µg/mL (≈ 24.8 µM).
The result for `CN1CCC(CO)(Cc2ccccc2)CC1` reads 28.6 µg/mL (≈ 130 µM).
The same measure for `CN1CCN(C(=O)N(c2ccccc2)c2ccccc2)CC1.Cl`: above 49.8 µg/mL.
The compound `CN(C(=O)c1ccc(Cl)cc1)C1CCS(=O)(=O)C1` (stereo not given) showed a solubility (kinetic) of 41.2 µg/mL (≈ 143 µM).
The same measure for `O=S(=O)([N-]c1nc2ccccc2nc1-[n+]1ccccc1)c1ccc(F)cc1`: 50.3 µg/mL (≈ 132 µM); for `COC(=O)c1ccc(S(=O)(=O)N(CCO)Cc2ccccc2)n1C`: 47.6 µg/mL (≈ 135 µM); for `Cc1cc(=O)n2c(-c3ccc(Cl)cc3)csc2n1`: 7.9 µg/mL (≈ 28.5 µM).
The same measure for `COc1cc(CN2CCC(CO)(CCOc3ccccc3)CC2)cc(OC)c1`: 52.2 µg/mL (≈ 135 µM); for `Cc1ccc(C)n1-c1cccc(C(=O)Nc2ccccc2)c1`: 13.9 µg/mL (≈ 47.9 µM).
The same measure for `O=[N+]([O-])c1ccc(NC(=S)NCc2ccc(F)cc2)cc1`: 4.5 µg/mL (≈ 14.7 µM).
The compound `CCCCN1C(=O)C(C)=C(C)C1OCCc1ccc(OC)c(OC)c1` (stereo not given) gave a kinetic solubility of 50.5 µg/mL (≈ 145 µM).
The result for `Nc1ccccc1C(=O)NCc1ccc(F)cc1` reads above 36.6 µg/mL; that for `O=C(COC(=O)C1C2CC3OC(=O)C1C3C2)Nc1ccc(F)cc1` (stereo not given), above 50 µg/mL.
For `CC(C)c1ccc(N)c(S(=O)(=O)O)c1`, the solubility (kinetic) is above 32.3 µg/mL.
The compound `COc1ccc(NC(=O)c2oc3ccccc3c2C)cn1` returned a solubility (kinetic) of 4 µg/mL (≈ 14.2 µM).
Turning to `C=C(C)COc1ccc(-c2ncncc2-c2ccccc2OC)c(O)c1`, the solubility (kinetic) is 5.5 µg/mL (≈ 15.8 µM).
The result for `CCC(=O)c1ccc(Oc2nc3c(c(=O)n(C)c(=O)n3C)n2CC)cc1` reads 19.6 µg/mL (≈ 55 µM); that for `CN(C)C(=O)c1cc(C(=O)c2c(F)cccc2F)c[nH]1`, above 41.7 µg/mL; that for `Cc1cc(SCC(=O)NC2CC2)nc2ccccc12`, above 40.9 µg/mL.
The result for `CCOc1ccc(N(C(=O)C2CCCO2)C2C=CS(=O)(=O)C2)cc1` (stereo not given) reads above 52.7 µg/mL; that for `CN1CCN(CC(O)COc2ccc(C(=O)O)cc2)CC1` (stereo not given), 35.5 µg/mL (≈ 121 µM).
Regarding `CCCC(=O)Nc1ccc(C(=O)COC(=O)C2CC2)cc1`, the solubility (kinetic) came out at 15.3 µg/mL (≈ 52.9 µM).
`Cc1ccc(-n2c(SCC(=O)N(C)C3CCS(=O)(=O)C3)nc3ccccc3c2=O)c(C)c1` (stereo not given): the solubility (kinetic) was above 70.7 µg/mL.
The result for `CC(=O)c1sc(-c2ccc(Cl)cc2)nc1C` reads below 0.5 µg/mL; that for `Cc1ccccc1NC(=O)CN1CCc2ccccc2C1`, 24.8 µg/mL (≈ 88.5 µM).
For `CCOc1ccc(CNc2ccc(N3CCN(Cc4ccccc4)CC3)cc2)cc1`, the kinetic solubility amounted to 0.9 µg/mL (≈ 2.24 µM).
